# Assay results as given in paper PMC5954004, “19th European Symposium on Radiopharmacy and Radiopharmaceuticals (ESRR’18)” (EJNMMI Radiopharmacy and Chemistry, 2018).
# Read-outs that look alike come from different tables or passages of the source. *1 amine or outer side, *2 acyl side, *3 side chain or, on linkers, in order; H or OH if unused. Where a SMILES comes first, the peptide text is derived from it. Bridges are numbered along the chain shown (N, C = ends). Where no end group is shown, it is not given here. [ ]: non-standard residue; d: D form. X1 = O=C([C@@H]1CCN=C2C(N[*:1])=Cc3cc(O)c(O)cc3N21)[*:2]; X2 = O=CN(O)CCC[C@H](N[*:1])C(=O)[*:2]; Suc = O=C(CCC(=O)[*:2])[*:1]
# Columns and labels:
# PC-3^+ = assay: total cell bound tracer, PC-3+; settings: 1h incubation
# Method: (§2) Total cell bound [^68Ga]1 and [^68Ga]2 over time (0-90 min) was determined according to previously published methods^1,2. FACS analysis with 3 was also performed on the following cell lines T47D^+ (PSMA^+), T47D^Mock (vector only), T47D (wild type).
# LNCaP = assay: total cell bound tracer, LNCaP; settings: 1h incubation
# Method: as §2
# MDA-MB-231^+ = assay: total cell bound tracer, MDA-MB-231+; settings: 1h incubation
# Method: as §2
# T47D^+ = assay: total cell bound tracer, T47D+; settings: 1h incubation
# Method: as §2
# [1] = test system: Her-2-positive (HCC1954) cell line; assay: cell binding and internalisation, HCC1954; format: cell-based; settings: controls
# Method: Radiopharmaceuticals (0.19 MBq/μg) were tested for their internalisation and effects on viability (dye exclusion) and clonogenicity of Her-2-positive (HCC1954) and –negative (MDA-MB-231) cell lines.
# MCF-7 cells = assay: cellular uptake, internalization and membrane binding; format: cell-based
# cysteine challenge = format: physicochemical; settings: 100 fold molar excess, up to 2 hours
# Method: Cysteine challenge (100 fold molar excess) was also performed.
# COX-2 = settings: cited from earlier work
# From the text: (§1) Aim: Neolignan 4’-O-methylhonokiol (MH) isolated from Magnolia grandiflora is known to have several biological activities, including anti-cancer, anti-inflammatory and anti-neurodegenerative effects. […] The development of COX-2 inhibitor radiolabeled analogs is of special interest for PET visualization of inflammation and tumors.
# COX-1 = settings: cited from earlier work
# From the text: as §1
# [2] = human, serum
# Method: Protein binding, partition coefficient and stability values of ^68Ga-pyoverdine in human serum and in the excess of competing chelator and metal were determined.
# [3] = carrageenan-induced inflammation in mice; format: in vivo; settings: preliminary tests on mice with a carrageenan-induced inflammation
# From the text: as §1, with “tumors. […] The present study describes the radiolabeling procedure of [^11C]MPbP.” for “tumors.”
# [4] = logP of 68Ga-TAFC derivatives; format: physicochemical; settings: 68Ga-labelled
# Method: Stability, protein binding and logP values were determined.
# [5] = adult, 740 MBq; ref summary of products characteristics; cited from earlier work
# RBCs = assay: RBC radiolabelling; format: cell-based
# AT1R = molecular target: T1, AT1R (Homo sapiens, UniProt P30556); assay: in vitro AT1R binding studies; format: cell-based; settings: MDA-MB-231 and CHO AT1R cells vs AT1R-negative CHO cells, 4 °C, one hour, with or without losartan potassium 100 μM
# T1 construct: using AT1R-positive MDA-MB-231 breast cancer cells; endogenous in cells
# Method: Methods: ^19F-AmBF3-losartan was prepared via a copper-catalyzed alkyne-AmBF3 and azide-modified losartan cycloaddition at 45 °C for two hours, followed by semi-preparative HPLC purification. Then, ^19F-AmBF3-losartan (25 nmol, 15.3 μg) was radiolabeled with fluoride-18 (555-925 MBq) via an ^18F–^19F isotope exchange reaction in aqueous phase at 80 °C for 20 minutes and purified by solid phase extraction using a C18 Light Sep-Pak cartridge. In vitro AT1R binding studies were performed at 4 °C for one hour using AT1R-positive MDA-MB-231 breast cancer cells, AT1R-expressing CHO AT1R cells, and AT1R-negative CHO cells. The in vitro studies were conducted in presence or absence of the AT1R blocker losartan potassium (100 μM). AT1R expression in cells was confirmed by quantitative real-time reverse transcription polymerase chain reaction (RT-PCR).
# rhuPAR = molecular target: T2, rhuPAR (human, UniProt Q03405 23-305); assay: ELISA; competitive bioassay: rhuPAR immobilised; ligand 0-1000 uM in the presence of 0.1 nM monoclonal mouse IgG1 antibody (clone #62022, R&D Systems) against the uPA-binding pocket of uPAR; HRP-conjugated goat anti-mouse IgG1, chromogenic substrate, read at 450 nm; assay specific IC50; settings: both partners purified
# T2 construct: Species read from the printed label 'rhuPAR' (recombinant human uPAR); also called membrane anchored receptor uPAR
# T2 sequence (Q03405 23-305): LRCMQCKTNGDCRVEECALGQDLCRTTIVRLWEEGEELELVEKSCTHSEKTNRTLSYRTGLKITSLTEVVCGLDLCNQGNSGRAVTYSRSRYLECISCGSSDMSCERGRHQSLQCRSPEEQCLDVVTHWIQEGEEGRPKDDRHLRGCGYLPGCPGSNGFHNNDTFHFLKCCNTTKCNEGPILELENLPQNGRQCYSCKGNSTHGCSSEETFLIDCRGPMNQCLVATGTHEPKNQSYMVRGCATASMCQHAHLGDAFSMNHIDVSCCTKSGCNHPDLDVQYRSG
# T1 sequence (P30556 whole entry): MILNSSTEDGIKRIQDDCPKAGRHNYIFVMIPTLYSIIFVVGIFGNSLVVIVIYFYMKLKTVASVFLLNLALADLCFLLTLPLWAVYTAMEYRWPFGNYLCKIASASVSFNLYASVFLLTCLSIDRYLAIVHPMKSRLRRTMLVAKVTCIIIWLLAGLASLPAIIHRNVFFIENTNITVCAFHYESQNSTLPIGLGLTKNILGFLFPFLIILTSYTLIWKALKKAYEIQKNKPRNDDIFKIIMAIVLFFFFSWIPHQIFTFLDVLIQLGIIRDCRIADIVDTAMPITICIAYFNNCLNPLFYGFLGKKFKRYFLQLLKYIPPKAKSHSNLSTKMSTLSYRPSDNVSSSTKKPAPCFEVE
molecule,measurement,setting,value
H2N-(Ahx)-Lys-NH-CO-NH-Glu (PSMA-11) [[^68Ga]1],"cell binding, % given radioactivity",PC-3^+,~ 13%
same,"cell binding, times above control",PC-3^+; vs Mock or blocked controls,10 x
same,"cell binding, % given radioactivity",LNCaP,~ 66%
same,"cell binding, % given radioactivity",MDA-MB-231^+,~ 80%
same,"cell binding, times above control",MDA-MB-231^+; vs Mock or blocked controls,100 x
same,"cell binding, % given radioactivity",T47D^+,~ 2.5%
same,"cell binding, times above control",T47D^+; vs Mock or blocked controls,4 x
O=C([O-])CN1CCN(CC(=O)[O-])CCN(CC(=O)[O-])CCN(CC(=O)[O-])CC1.[111In+3] [^111In-DOTA],binding to HCC1954 cells,[1],did not bind
"MA-Cys-Tyr-Arg-Leu-Arg-BPA-Nle-Pro-Asn-Ile-OH [^99mTc labelled NPY1 short analogue, 99mTc 3+1 nitrido complex of MA-Cys-Tyr-Arg-Leu-Arg-BPA-Nle-Pro-Asn-Ile-OH]",activity bound to the membrane,MCF-7 cells,15.2%
same,activity internalised,MCF-7 cells,84.8%
same,cellular uptake,MCF-7 cells; at 4 hours,3.1±0.2
same,challenge with cysteine,cysteine challenge,no ligand exchange
"C=CCc1ccc(O)c(-c2ccc(OC)c(CC=C)c2)c1 [MH, 4’-O-methylhonokiol]",IC50,COX-2,62 nM
same,IC50,COX-1,2400 nM
"C[C@@H](O)[C@@H]1NC(=O)[C@H](CCCN(O)C=O)NC(=O)[C@@H](NC(=O)[C@H](CCCN(O)C=O)NC(=O)[C@@H](CO)NC(=O)[C@H](CCCNC(=N)N)NC(=O)[C@@H](CO)NC(=O)[C@@H]2CCN=C3C(NC(=O)CCC(=O)O)=Cc4cc(O)c(O)cc4N32)CCCCNC(=O)[C@H]([C@@H](C)O)NC1=O [^68Ga-pyoverdine, metal not drawn] (Suc-[X1][dS]R[dS][X2]K[X2]TT; lactam 6-C)",fraction unbound,[2],> 0.97
same,log p,,-3.07 ± 0.08
"CCCc1ccc(O)c(-c2ccc(O[11CH3])cc2)c1 [MPbP, 4’-[^11C]methoxy-5-propyl-1,1’-biphenyl-2-ol]",anti-inflammatory activity,[3],high anti-inflammatory activity comparable to that of specific COX-2 inhibitor celecoxib
triacetylfusarinine C [[^68Ga]TAFC],log p,[4],-2.1
"^99mTc-HYNIC-[D-Phe,Tyr-octreotide [^99mTc-Octreotide]",effective dose,[5],3.7 mSv
c1cnc2c([O][89Zr]([O]c3cccc4cccnc34)([O]c3cccc4cccnc34)[O]c3cccc4cccnc34)cccc2c1 [^89Zr-oxine],labelling efficiency of RBCs,RBCs,above 64.5%
ammoniumethyl-trifluoroborate-losartan [^18F-AmBF3-losartan],binding to AT1R-expressing cells,AT1R,specific binding
"[dC]NKYFSNICW (peptide, UniProt P00749 41-50, looked up, disulfide 1-9, also called the original structure; source: synthetic peptide (synthesised on solid phase)) [WX-360: cyclo^21,29[D-Cys^21]-uPA_(21-30)[S21C;H29C]]",binding result,rhuPAR,binds
